Patent US12629336B2, “Compositions and methods of use thereof for treatment of mastitis” (CureMast, Inc., priority 2020, dated 2026)
Several values for one entry are separate records, joined by “and”; a condition that tells them apart may be missing. Equal values may be shown once. Read-outs that look alike come from different tables or passages of the source.

Experiments:
[1] = paper chromatography: migration/release of NAC from monoolein emulsions; format: physicochemical; conditions: deionized water as solvent, tetrazolium/ammonia detection
From the text: Paper chromatography was utilized to evaluate the release of soluble NAC from the formulations of Examples 1 and 2 using a colorimetric reagent to develop the chromatograms as follows:
Three strips of chromatography paper were marked with pencil to indicate the “origin” and spotted with a small dot of each of the two samples. The third strip was spotted with a drop of aqueous NAC only. Each strip was suspended in a separate jar with deionized water just covering the bottom of the jar. The bottom edge of each paper strip was positioned to be immersed in water, which gradually migrated up the strip. After upward water migration wet approximately 6 to 8 cm of the paper, the “solvent front” was marked with pencil and the strips were allowed to dry completely.
Tetrazolium blue chloride (Sigma no. T4375, lot no. SHBM0991) was dissolved in denatured ethyl alcohol to obtain a 1% solution and transferred to a small spray bottle. The dry chromatography strips were placed in a chemical fume hood, sprayed with the tetrazolium solution, and allowed to dry again. An ammonia chamber was created by coving the bottom of a large glass canister with concentrated ammonium hydroxide and the chromatography paper strips were suspended just above the liquid with the canister covered until a purple color developed, indicating the presence of NAC.

[2] = tested on: bacteria; conditions: in vitro; value in brackets; cited from earlier work
[3] = tested on: epithelial cells; conditions: in vitro, cited from earlier work

Rf value of NAC [1] | migration of NAC from the origin [1] | Compound | minimum inhibitory concentration (MIC) required to kill bacteria [2] [%] | cytotoxic limit (CTL) above which epithelial cells are killed [3] | cytotoxic limit (CTL) above which epithelial cells are killed ([3]; value in brackets) [%]
0.91 and 0.67 | migrated from the origin | CC(=O)N[C@@H](CS)C(=O)O [aqueous NAC, N-acetyl-L-cysteine] | – | – | –
– | – | polyhexamethylene biguanide hydrochloride [PHMB] | 0.01 | greater than 15 mg per liter | > 0.15
